Reference: PMC11705080 (2025)

Experiments:
[1] = tested on: FRET-4 (DNA, hairpin) ATGGCCGGCCGGAAAAACCGGCCGGCCAT; assay: fluorescence (FRET) melting; conditions: 10 μM compound (r = 10), 1.0 μM DNA; control Tm 83.0 °C; condensation; +1.21 °C at r = 2.5
[2] = tested on: F-2 (DNA, hairpin) GCATTATAATGCAAAAAGCATTATAATGC; assay: MST instrument, initial fluorescence, Hill model; conditions: Na+ (25 mM NaCl); 80 mM HEPES; 1 μM DNA; fluorescence decrease ascribed to DNA condensation
[3] = tested on: poly[d(G-C)2] (DNA, polymer) GC; assay: limited-bound ethidium bromide fluorescence quenching, Hill model; conditions: Na+ (40 mM NaCl); 80 mM HEPES pH 7.2; 5 μM EtBr, 25 μM DNA; EtBr fluorescence quenched; per base
[4] = tested on: FRET-1 (DNA, hairpin) CGCGAATTCGCGAAAAACGCGAATTCGCG; assay: fluorescence (FRET) melting; conditions: 7 μM compound (r = 7), 1.0 μM DNA; control Tm 74.9 °C
[5] = tested on: poly[d(G-C)2] (DNA, polymer) GC; assay: ethidium bromide displacement (fluorescence); conditions: 12.5 μM EtBr displaced, 12.5 μM DNA, 1 h, per base
[6] = tested on: FRET-3 (DNA, hairpin) ATCGGCGCCGATAAAAAATCGGCGCCGAT; assay: fluorescence (FRET) melting; conditions: 10 μM compound (r = 10), 1.0 μM DNA; control Tm 79.7 °C; condensation; +0.48 °C at r = 2
[7] = tested on: FRET-2 (DNA, hairpin) GCATTATAATGCAAAAAGCATTATAATGC; assay: fluorescence (FRET) melting, Bard equation; conditions: 1.0 μM DNA; r = 0–10; derived from Tm fraction bound; 37 °C pre-incubation
[8] = tested on: F-1 (DNA, hairpin) CGCGAATTCGCGAAAAACGCGAATTCGCG; assay: MST instrument, initial fluorescence, Hill model; conditions: Na+ (25 mM NaCl); 80 mM HEPES; 1 μM DNA; low 10^–5 M; fluorescence decrease ascribed to DNA condensation
[9] = tested on: FRET-1 (DNA, hairpin) CGCGAATTCGCGAAAAACGCGAATTCGCG; assay: fluorescence (FRET) melting, Bard equation; conditions: 1.0 μM DNA; r = 0–7; derived from Tm fraction bound; 37 °C pre-incubation
[10] = tested on: F-3 (DNA, hairpin) ATCGGCGCCGATAAAAAATCGGCGCCGAT; assay: MST instrument, initial fluorescence, Hill model; conditions: Na+ (25 mM NaCl); 80 mM HEPES; 1 μM DNA; low 10^–5 M; fluorescence decrease ascribed to DNA condensation
[11] = tested on: F-4 (DNA, hairpin) ATGGCCGGCCGGAAAAACCGGCCGGCCAT; assay: MST instrument, initial fluorescence, Hill model; conditions: Na+ (25 mM NaCl); 80 mM HEPES; 1 μM DNA; low 10^–5 M; fluorescence decrease ascribed to DNA condensation
[12] = tested on: FRET-2 (DNA, hairpin) GCATTATAATGCAAAAAGCATTATAATGC; assay: fluorescence (FRET) melting; conditions: 10 μM compound (r = 10), 1.0 μM DNA; control Tm 61.5 °C
[13] = tested on: poly[d(A-T)2] (DNA, polymer) AT; assay: limited-bound ethidium bromide fluorescence quenching, Hill model; conditions: Na+ (40 mM NaCl); 80 mM HEPES pH 7.2; 5 μM EtBr, 25 μM DNA; EtBr fluorescence quenched; per base
[14] = tested on: poly[d(A-T)2] (DNA, polymer) AT; assay: ethidium bromide displacement (fluorescence); conditions: 12.5 μM EtBr displaced, 12.5 μM DNA, 1 h, per base
[15] = apparent, complex prepared in situ, Kapp = Kb × 12.6/C50

O=[N+]([O-])[O-].O=[N+]([O-])[O-].O=[N+]([O-])[O-].O=[N+]([O-])[O-].[Cu+2].[Cu+2].c1cnc2c(c1)cc(-n1cc(CCCCc3cn(-c4cc5cccnc5c5ncccc45)nn3)nn1)c1cccnc12
Δ TM [1]: - 6.3 °C
EC50 [2]: 9.2 × 10^–6 M
Q (EC50) [3]: 12.86 µM
Δ TM [4]: + 4.5 °C
C50 [5]: 6.318 µM
Kapp [5, 15]: 1.75e+07 M⁻¹
Δ TM [6]: - 3.7 °C
Kb [7]: 4.38e+08 M⁻¹
EC50 [8]: 11.92 µM
Kb [9]: 1.06e+07 M⁻¹
EC50 [10]: 11.39 µM
EC50 [11]: 11.25 µM
Δ TM [12]: + 3.6 °C
Q (EC50) [13]: 11.18 µM
C50 [14]: 3.911 µM
Kapp [14, 15]: 2.84e+07 M⁻¹
